Experimental data reported in patent US6737383B1, “Herbicidal oxadiazolidines” (priority 1999, dated 2004).

Assays:
blackgrass = assay: Test B pre/postemergence blackgrass; assay type: in vivo, Alopecurus myosuroides
Procedure, shortened: (§1)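 Test chemicals in a non-phytotoxic solvent mixture with surfactant were sprayed preemergence onto planted seeds and postemergence onto plants 2 to 18 cm tall (1- to 4-leaf stage). After twelve to sixteen days in a greenhouse, injury was visually rated against untreated controls from 0 (no effect) to 10 (complete control).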

surinam grass = assay: Test B pre/postemergence surinam grass; assay type: in vivo, Brachiaria decumbens
Procedure, shortened: as §1

cocklebur = assay: Test B pre/postemergence cocklebur; assay type: in vivo, Xanthium strumarium
Procedure, shortened: as §1

corn = assay: Test B pre/postemergence corn; assay type: in vivo, Zea mays
Procedure, shortened: as §1

crabgrass = assay: Test B pre/postemergence crabgrass; assay type: in vivo, Digitaria sanguinalis
Procedure, shortened: as §1

giant foxtail = assay: Test B pre/postemergence giant foxtail; assay type: in vivo, Setaria faberii
Procedure, shortened: as §1

morningglory = assay: Test B pre/postemergence morningglory; assay type: in vivo, Ipomoea hederacea; details: for Plant response rating, Morningglory: scale of 0 to 10 where 0 is no effect and 10 is complete control
Procedure, shortened: as §1

pigweed = assay: Test B pre/postemergence pigweed; assay type: in vivo, Amaranthus retroflexus; details: for Plant response rating, Redroot pigweed: scale of 0 to 10 where 0 is no effect and 10 is complete control
Procedure, shortened: as §1

rape = assay: Test B pre/postemergence rape; assay type: in vivo, Brassica napus; details: for Plant response rating, Rape: scale of 0 to 10 where 0 is no effect and 10 is complete control
Procedure, shortened: as §1

soybean = assay: Test B pre/postemergence soybean; assay type: in vivo, Glycine max; details: for Plant response rating, Soybean: scale of 0 to 10 where 0 is no effect and 10 is complete control
Procedure, shortened: as §1

sugar beet = assay: Test B pre/postemergence sugar beet; assay type: in vivo, Beta vulgaris; details: for Plant response rating, Sugarbeets: scale of 0 to 10 where 0 is no effect and 10 is complete control
Procedure, shortened: as §1

velvetleaf = assay: Test B pre/postemergence velvetleaf; assay type: in vivo, Abutilon theophrasti; details: for Plant response rating, Velvetleaf: scale of 0 to 10 where 0 is no effect and 10 is complete control
Procedure, shortened: as §1

wheat = assay: Test B pre/postemergence wheat; assay type: in vivo, Triticum aestivum; details: for Plant response rating, Wheat: scale of 0 to 10 where 0 is no effect and 10 is complete control
Procedure, shortened: as §1

wild oat = assay: Test B pre/postemergence wild oat; assay type: in vivo, Avena fatua; details: for Plant response rating, Wild oats: scale of 0 to 10 where 0 is no effect and 10 is complete control
Procedure, shortened: as §1

purple nutsedge = assay: Test B pre/postemergence purple nutsedge; assay type: in vivo, Cyperus rotundus; details: for Plant response rating, Nutsedge: scale of 0 to 10 where 0 is no effect and 10 is complete control
Procedure, shortened: as §1

rice = assay: Test B flood test rice; assay type: in vivo, Oryza sativa
Procedure, shortened: (§2)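 Read-out is a visual response score from 0 (no effect) to 10 (complete control), assigned by comparison with untreated controls. Treatment was applied at the 2-leaf stage, and plants stayed in the greenhouse for twelve to sixteen days before scoring.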

smallflower flatsedge = assay: Test B flood test smallflower flatsedge; assay type: in vivo, Cyperus difformis
Procedure, shortened: as §2

duck salad = assay: Test B flood test duck salad; assay type: in vivo, Heteranthera limosa
Procedure, shortened: as §2

bamyardgrass = assay: Test B flood test barnyardgrass; assay type: in vivo, Echinochloa crus-galli
Procedure, shortened: as §2

[1] = Postemergence, Rate 250 g/ha, scale 0 to 10
[2] = Postemergence, Rate 500 g/ha, scale of 0 to 10 where 0 is no effect and 10 is complete control
[3] = Preemergence, Rate 62 g/ha, scale of 0 to 10 where 0 is no effect and 10 is complete control
[4] = Preemergence, Rate 125 g/ha, scale of 0 to 10 where 0 is no effect and 10 is complete control
[5] = Preemergence, Rate 250 g/ha, scale 0 to 10, 0 is no effect, 10 is complete control
[6] = Preemergence, Rate 500 g/ha, scale 0 to 10, 0 is no effect, 10 is complete control
[7] = Rate 62 g/ha, Postemergence, scale 0 to 10 (0 no effect, 10 complete control)
[8] = Rate 125 g/ha, Postemergence, scale 0 to 10, 0 is no effect, 10 is complete control
[9] = Rate 62 g/ha, flood test species, Pre-emergence, visual evaluation after twelve to sixteen days
[10] = Rate 125 g/ha, under heading Pre-emergence, flood test species, visual evaluation after twelve to sixteen days
[11] = Rate 250 g/ha, Pre-emergence (flood test species), scale 0 to 10, 0 is no effect, 10 is complete control
[12] = Rate 500 g/ha, Pre-emergence, flood test species, scale 0 to 10 (0 no effect, 10 complete control)

COC(=O)C(C)n1c(=O)on(C(=O)N(c2ccc(F)cc2F)C(C)C)c1=O (stereo not shown) [Compound 463]
Blackgrass plant response rating (blackgrass; [1]): 0
Blackgrass plant response rating (blackgrass; [2]): 2
Plant response rating, Blackgrass (blackgrass; [3]): 0
Plant response rating, Blackgrass (blackgrass; [4]): 0
Blackgrass plant response rating (blackgrass; [5]): 2
Blackgrass plant response rating (blackgrass; [6]): 4
Blackgrass plant response rating (blackgrass; [7]): 0
Blackgrass plant response rating (blackgrass; [8]): 0
B. signalgrass plant response rating (surinam grass; Postemergence, Rate 250 g/ha, scale 0 to 10, 0 no effect, 10 complete control): 0
B. signalgrass plant response rating (surinam grass; [2]): 0
Plant response rating, B. signalgrass (surinam grass; [3]): 0
Plant response rating, B. signalgrass (surinam grass; [4]): 0
B. signalgrass plant response rating (surinam grass; [5]): 0
B. signalgrass plant response rating (surinam grass; [6]): 2
B. signalgrass plant response rating (surinam grass; [7]): 0
B. signalgrass plant response rating (surinam grass; [8]): 0
Cocklebur plant response rating (cocklebur; [1]): 0
Cocklebur plant response rating (cocklebur; [2]): 2
Plant response rating, Cocklebur (cocklebur; [3]): 0
Plant response rating, Cocklebur (cocklebur; [4]): 0
Cocklebur plant response rating (cocklebur; [5]): 0
Cocklebur plant response rating (cocklebur; [6]): 0
Cocklebur plant response rating (cocklebur; [7]): 0
Cocklebur plant response rating (cocklebur; [8]): 0
Corn plant response rating (corn; [1]): 0
Corn plant response rating (corn; [2]): 0
Plant response rating, Corn (corn; [3]): 0
Plant response rating, Corn (corn; [4]): 0
Corn plant response rating (corn; [5]): 0
Corn plant response rating (corn; [6]): 0
Corn plant response rating (corn; [7]): 0
Corn plant response rating (corn; [8]): 0
Crabgrass plant response rating (crabgrass; [1]): 2
Crabgrass plant response rating (crabgrass; [2]): 2
Plant response rating, Crabgrass (crabgrass; [3]): 0
Plant response rating, Crabgrass (crabgrass; [4]): 0
Crabgrass plant response rating (crabgrass; [5]): 2
Crabgrass plant response rating (crabgrass; [6]): 2
Crabgrass plant response rating (crabgrass; [7]): 0
Crabgrass plant response rating (crabgrass; [8]): 0
Giant foxtail plant response rating (giant foxtail; [1]): 6
Giant foxtail plant response rating (giant foxtail; [2]): 6
Plant response rating, Giant foxtail (giant foxtail; [3]): 0
Plant response rating, Giant foxtail (giant foxtail; [4]): 0
Giant foxtail plant response rating (giant foxtail; [5]): 3
Giant foxtail plant response rating (giant foxtail; [6]): 10
Giant foxtail plant response rating (giant foxtail; [7]): 0
Giant foxtail plant response rating (giant foxtail; [8]): 0
Morningglory plant response rating (morningglory; [1]): 2
Plant response rating, Morningglory (morningglory; Preemergence, Rate 62 g/ha): 0
Plant response rating, Morningglory (morningglory; Preemergence, Rate 125 g/ha): 0
Morningglory plant response rating (morningglory; [5]): 0
Morningglory plant response rating (morningglory; [6]): 0
Morningglory plant response rating (morningglory; [7]): 0
Morningglory plant response rating (morningglory; [8]): 0
Redroot pigweed plant response rating (pigweed; [1]): 0
Plant response rating, Redroot pigweed (pigweed; Preemergence, Rate 62 g/ha): 2
Plant response rating, Redroot pigweed (pigweed; Preemergence, Rate 125 g/ha): 5
Redroot pigweed plant response rating (pigweed; [5]): 10
Redroot pigweed plant response rating (pigweed; [6]): 10
Redroot pigweed plant response rating (pigweed; [7]): 0
Redroot pigweed plant response rating (pigweed; [8]): 0
Rape plant response rating (rape; [1]): 0
Plant response rating, Rape (rape; Preemergence, Rate 62 g/ha): 0
Plant response rating, Rape (rape; Preemergence, Rate 125 g/ha): 0
Rape plant response rating (rape; [5]): 0
Rape plant response rating (rape; [6]): 0
Rape plant response rating (rape; [7]): 0
Rape plant response rating (rape; [8]): 0
Soybean plant response rating (soybean; [1]): 1
Plant response rating, Soybean (soybean; Preemergence, Rate 62 g/ha): 0
Plant response rating, Soybean (soybean; Preemergence, Rate 125 g/ha): 0
Soybean plant response rating (soybean; [5]): 0
Soybean plant response rating (soybean; [6]): 0
Soybean plant response rating (soybean; [7]): 1
Soybean plant response rating (soybean; [8]): 1
Sugarbeets plant response rating (sugar beet; [1]): 0
Plant response rating, Sugarbeets (sugar beet; Preemergence, Rate 62 g/ha): 0
Plant response rating, Sugarbeets (sugar beet; Preemergence, Rate 125 g/ha): 0
Sugarbeets plant response rating (sugar beet; [5]): 0
Sugarbeets plant response rating (sugar beet; [6]): 0
Sugarbeets plant response rating (sugar beet; [7]): 0
Sugarbeets plant response rating (sugar beet; [8]): 0
Velvetleaf plant response rating (velvetleaf; [1]): 0
Plant response rating, Velvetleaf (velvetleaf; Preemergence, Rate 62 g/ha): 0
Plant response rating, Velvetleaf (velvetleaf; Preemergence, Rate 125 g/ha): 0
Velvetleaf plant response rating (velvetleaf; [5]): 0
Velvetleaf plant response rating (velvetleaf; [6]): 2
Velvetleaf plant response rating (velvetleaf; [7]): 0
Velvetleaf plant response rating (velvetleaf; [8]): 0
Wheat plant response rating (wheat; [1]): 0
Plant response rating, Wheat (wheat; Preemergence, Rate 62 g/ha): 0
Plant response rating, Wheat (wheat; Preemergence, Rate 125 g/ha): 0
Wheat plant response rating (wheat; [5]): 0
Wheat plant response rating (wheat; [6]): 0
Wheat plant response rating (wheat; [7]): 0
Wheat plant response rating (wheat; [8]): 0
Wild oats plant response rating (wild oat; [1]): 0
Plant response rating, Wild oats (wild oat; Preemergence, Rate 62 g/ha): 0
Plant response rating, Wild oats (wild oat; Preemergence, Rate 125 g/ha): 0
Wild oats plant response rating (wild oat; [5]): 0
Wild oats plant response rating (wild oat; [6]): 0
Wild oats plant response rating (wild oat; [7]): 0
Wild oats plant response rating (wild oat; [8]): 0
Nutsedge plant response rating (purple nutsedge; [1]): 0
Plant response rating, Nutsedge (purple nutsedge; Preemergence, Rate 62 g/ha): 0
Plant response rating, Nutsedge (purple nutsedge; Preemergence, Rate 125 g/ha): 0
Nutsedge plant response rating (purple nutsedge; [5]): 0
Nutsedge plant response rating (purple nutsedge; [6]): 0
Nutsedge plant response rating (purple nutsedge; [7]): 0
Nutsedge plant response rating (purple nutsedge; [8]): 0
Plant response rating, Rice (0 to 10 scale, 0 is no effect, 10 is complete control) (rice; [9]): 0
Rice plant response rating (0 to 10 scale, 0 is no effect, 10 is complete control) (rice; [10]): 0
Rice plant response rating (rice; [11]): 0
Rice plant response rating (rice; [12]): 0
Plant response rating, S. Flatsedge (0 to 10 scale, 0 is no effect, 10 is complete control) (smallflower flatsedge; [9]): 0
S. Flatsedge plant response rating (0 to 10 scale, 0 is no effect, 10 is complete control) (smallflower flatsedge; [10]): 0
S. Flatsedge plant response rating (smallflower flatsedge; [11]): 0
S. Flatsedge plant response rating (smallflower flatsedge; [12]): 0
Plant response rating, Ducksalad (0 to 10 scale, 0 is no effect, 10 is complete control) (duck salad; [9]): 0
Ducksalad plant response rating (0 to 10 scale, 0 is no effect, 10 is complete control) (duck salad; [10]): 0
Ducksalad plant response rating (duck salad; [11]): 0
Ducksalad plant response rating (duck salad; [12]): 0
Plant response rating, Barnyardgrass (0 to 10 scale, 0 is no effect, 10 is complete control) (bamyardgrass; [9]): 0
Barnyardgrass plant response rating (0 to 10 scale, 0 is no effect, 10 is complete control) (bamyardgrass; [10]): 0
Barnyardgrass plant response rating (bamyardgrass; [11]): 0
Barnyardgrass plant response rating (bamyardgrass; [12]): 0
